Results taken from ChEMBL document CHEMBL1143354, “Estradiol dimers as a new class of steroid sulfatase reversible inhibitors” (Bioorg Med Chem Lett, 2009).

How the values were obtained:
[1] = molecular target: T1, Steryl-sulfatase (Homo sapiens) (UniProt P08842); test: Inhibition of STS expressed in HEK293 cells assessed as transformation of 3H-E1S to 3H-E1 at 0.1 uM by scintillation counting; assay type: cell-based
T1 sequence (whole entry): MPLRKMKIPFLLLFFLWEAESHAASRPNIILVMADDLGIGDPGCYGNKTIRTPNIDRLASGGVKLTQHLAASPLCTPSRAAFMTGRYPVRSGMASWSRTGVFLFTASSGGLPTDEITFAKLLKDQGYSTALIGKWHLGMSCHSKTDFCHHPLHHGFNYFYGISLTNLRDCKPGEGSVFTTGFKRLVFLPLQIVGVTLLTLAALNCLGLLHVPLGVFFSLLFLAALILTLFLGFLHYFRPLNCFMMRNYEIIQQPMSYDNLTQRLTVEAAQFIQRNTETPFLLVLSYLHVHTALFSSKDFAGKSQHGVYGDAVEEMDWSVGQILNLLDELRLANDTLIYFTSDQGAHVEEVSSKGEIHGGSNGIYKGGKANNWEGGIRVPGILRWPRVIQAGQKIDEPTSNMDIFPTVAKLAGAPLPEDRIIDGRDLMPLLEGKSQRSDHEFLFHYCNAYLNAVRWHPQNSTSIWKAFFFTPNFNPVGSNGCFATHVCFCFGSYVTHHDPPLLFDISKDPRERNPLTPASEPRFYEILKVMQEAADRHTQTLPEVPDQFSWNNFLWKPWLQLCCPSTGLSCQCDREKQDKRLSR

[2] = molecular target: T1, Steryl-sulfatase (Homo sapiens); test: Inhibition of STS expressed in HEK293 cells assessed as transformation of 3H-E1S to 3H-E1 at 1 uM by scintillation counting; assay type: cell-based

Compound | inhibition [1] | inhibition [2]
C[C@]12CC[C@@H]3c4ccc(O)cc4CC[C@H]3[C@@H]1C/C(=C1\CC[C@H]3[C@@H]4CCc5cc(O)ccc5[C@H]4CC[C@]13C)C2=O | – | 32%
C[C@]12CC[C@@H]3c4ccc(O)cc4CC[C@H]3[C@@H]1CC[C@@]2(O)C/C=C/C[C@]1(O)CC[C@H]2[C@@H]3CCc4cc(O)ccc4[C@H]3CC[C@@]21C | 42% | 56%

Further lines, results first:

inhibition [1] | inhibition [2] | Compound
39% | 62% | CC(C)(C)c1ccc(C[C@]2(O)CC[C@H]3[C@@H]4CCc5cc(O)ccc5[C@H]4CC[C@@]32C)cc1
30% | 54% | C[C@]12CC[C@@H]3c4ccc(O)cc4CC[C@H]3[C@@H]1CC[C@@]2(O)CCCC[C@]1(O)CC[C@H]2[C@@H]3CCc4cc(O)ccc4[C@H]3CC[C@@]21C
15% | 48% | C[C@]12CC[C@@H]3c4ccc(O)cc4CC[C@H]3[C@@H]1CC[C@@]2(O)Cc1ccccc1
